Measurements from patent US20210030796A1, “METHOD FOR PRODUCING ANTIGEN-SPECIFIC T CELLS” (Thyas Co. Ltd., priority 2019, published 2021).

What was measured:
[1] = system: mononuclear cells from peripheral blood of a healthy subject (CD137+ T cells); experiment: T cell activation by EBV-LMP2A antigenic peptide stimulation, CD137 flow cytometry; format: cell-based, human; conditions: addition of CMA (0.3 to 3 μM per Example 1), two samples of PBMC from a healthy subject
Method: Re-inoculate in a 24-well plate. Add 0.3 to 3 μM Concanamycin A to a medium and incubate at 37° C. and 5% CO2 for 2 hours. Add 10 μg/ml EBV LMP2A peptide and culture at 37° C. and 5% CO2 for 24 hours. Suspend 2×10^6 cells of peripheral blood mononuclear cells (PBMC) separated from peripheral blood of a healthy subject in a MEM-alpha medium added with 10% FBS, 200 U IL-2 and 20 μg/ml IL-15, and add 10 μg/ml EBV LMP2A peptide. Start culturing at 37° C. and 5% CO2. Replace the medium and divide the wells every 2 to 5 days according to amplification rate of the cells. Culture for 12 days. Collect the cells on day 12 and re-inoculate in a 24-well plate at 2×10^6 cells/well. Add 0.3 to 3 μM Concanamycin A to the medium and incubate at 37° C. and 5% CO2 for 2 hours. Then, add 10 μg/ml EBV LMP2A peptide and culture at 37° C. and 5% CO2 for 24 hours. After 24 hours, stain the cells with CD8-PerCP/Cy5.5 antibody and CD137-PE antibody, and analyze using a flow cytometer (BD FACS Aria II).

[2] = system: mononuclear cells from peripheral blood of a leukemia patient (CD137-expressing T cells); experiment: T cell activation by WT1 antigenic peptide stimulation, CD137 expression; format: cell-based, human; conditions: FIG. 3; medium added with 1 μM CMA; two samples of PBMC from a leukemia patient

C/C=C/[C@H]1O[C@@](O)([C@@H](C)[C@H](O)[C@H](C)[C@H]2OC(=O)/C(OC)=C/C(C)=C/[C@@H](C)[C@@H](O)[C@@H](CC)[C@@H](O)[C@H](C)C/C(C)=C/C=C/[C@@H]2OC)C[C@@H](O[C@H]2C[C@@H](O)[C@H](OC(N)=O)[C@@H](C)O2)[C@@H]1C [Concanamycin A]
percentage of CD137+ T cells activated with EBV-LMP2A peptide ([1]; FIG. 1): increased
number of CD137+ T cells activated with EBV-LMP2A peptide ([1]; FIG. 2): increased
percentage of T cells activated (CD137-expressing) by WT1 peptide stimulation [2]: induced
